Measurements: patent US20090105251A1, “Renin inhibitors” (priority 2007, published 2009)

target: T1, Recombinant human renin (Homo sapiens, UniProt P00797); assay: In vitro enzymatic activity assay of renin inhibitors (fluorogenic peptide substrate); assay type: biochemical; settings: recombinant human renin 3 nM, 1 μM substrate QXL520/HiLyteFluo488 peptide, pH 7.4, 37° C., fluorescence; values given as ranges; read-out: IC50 of Exemplified Compounds Against Renin, IC50
T1 construct: isolate the active form (residues 67-406); made in house
T1 sequence (P00797 67-406): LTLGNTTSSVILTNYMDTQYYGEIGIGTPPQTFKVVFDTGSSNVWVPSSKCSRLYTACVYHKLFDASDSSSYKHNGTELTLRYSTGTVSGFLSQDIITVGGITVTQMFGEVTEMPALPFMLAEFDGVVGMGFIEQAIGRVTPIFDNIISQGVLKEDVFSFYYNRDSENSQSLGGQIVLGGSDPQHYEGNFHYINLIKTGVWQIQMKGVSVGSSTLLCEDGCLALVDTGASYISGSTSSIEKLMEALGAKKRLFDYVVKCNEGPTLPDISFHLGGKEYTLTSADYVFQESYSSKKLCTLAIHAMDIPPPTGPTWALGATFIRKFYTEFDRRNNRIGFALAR
Text: Test compounds in varying concentrations may be reacted with recombinant human renin in the presence of substrate, e.g., QXL520-γ-Abu-Ile-His-Pro-Phe-His-Leu-Val-Ile-His-Thr-Lys (HiLyteFluo488)-Arg-OH (Anaspec, San Jose, Calif.). The reaction can be followed kinetically using fluorescence (excitation λ=485 nm; emission λ=538 nm). Inhibition constants (IC50) may be calculated by non-linear curve fitting of the compound concentrations and fluorescence intensities to the standard IC50 equation.
Solutions of test compounds in varying concentrations (≦2 mM final concentration) are prepared in dimethyl sulfoxide (DMSO) and then diluted into assay buffer comprising 50 mM Hepes, 1 mM EDTA, 1 mM DTT, 0.1 mg/ml BSA, 0.01% Brij35, pH 7.4. Alternatively, the assay can be performed with a high BSA concentration, wherein the buffer contains an additional 2% BSA.
Recombinant human renin (3 nM final concentration) is added to the dilutions and pre-incubated with the compounds for 10 minutes at 37° C. As described in Examples A-C above, human renin can be obtained by expressing preprorenin (residue 1-406) in mammalian cells, treating the prorenin (residues 24-406) contained in the culture supernatant with trypsin, and isolate the active form (residues 67-406). After pre-incubation, the reaction is initiated with 1 μM of substrate QXL520-γ-Abu-Ile-His-Pro-Phe-His-Leu-Val-Ile-His-Thr-Lys (HiLyteFluo488)-Arg-OH (Anaspec, San Jose, Calif.). The final DMSO in the assay is 5%. The total volume of the reaction mixture is 20 μL, which can be placed on Greiner 384-well small volume plates.
Renin activity may be determined via fluorescence (excitation λ=485 nm; emission λ=538 nm), e.g., on a Molecular Devices SPECTROmax GEMINI XPS. The fluorescence intensity is determined upon the addition of substrate and determined again after incubation at 37° C. for one hour. The fluorescence intensity of a blank (no inhibition) using vehicle alone is also determined. Renin activity is linearly proportional to the change in fluorescence observed (final−initial).
The percent inhibition of renin at a given compound concentration is defined as:
100%×[1−(Fcompound/Fblank)]
where Fcompound is the observed fluorescence at a given concentration of test compound and Fblank is the observed fluorescence in the presence of vehicle alone.
The pIC50 value (negative log of the molar concentration of the compound that produces 50% inhibition) of a test compound is calculated by non-linear least squares curve fitting of the equation:
Percent Inhibition=100%/(1+(10^−pIC50/10^log [I]))
to percent inhibition versus compound concentration. The 50% inhibitory concentration (IC50) of a test compound is calculated by raising 10 to the negative pIC50 (10^−pIC50).

SMILES | IC50 [µM]
O=C(C1CC1c1ccccc1)N1CCNCC1Cc1ccccc1 (stereo in doubt) [Example 2, ((S)-2-benzylpiperazin-1-yl)(2-phenylcyclopropyl)methanone] | > 100
O=C(c1sccc1-c1ccccc1Oc1ccccc1)N1CCNC[C@H]1Cc1ccccc1 [Example 1, ((R)-2-benzylpiperazin-1-yl)(3-(2-phenoxyphenyl)thiophen-2-yl)methanone] | < 1
Cc1ccc(-c2ccccc2C(=O)N2CCNC[C@H]2Cc2ccccc2)cc1C [Example 3, (R)-(2-benzylpiperazin-1-yl)(3′,4′-dimethylbiphenyl-2-yl)methanone] | < 1
O=C(c1ccccc1-c1ccccc1)N1CCNC[C@H]1Cc1ccccc1 [Example 4, (R)-(2-benzylpiperazin-1-yl)(biphenyl-2-yl)methanone] | 1 to 50
O=C(c1ccccc1-c1ccccc1Cl)N1CCNC[C@H]1Cc1ccccc1 [Example 5, ((R)-2-benzylpiperazin-1-yl)(2′-chlorobiphenyl-2-yl)methanone] | 1 to 50
O=C(c1ccnn1-c1ccccc1)N1CCNC[C@H]1Cc1ccccc1 [Example 6, (R)-(2-benzylpiperazin-1-yl)(1-phenyl-1H-pyrazol-5-yl)methanone] | 1 to 50
O=C(c1ncoc1-c1ccccc1)N1CCNC[C@H]1Cc1ccccc1 [Example 7, (R)-(2-benzylpiperazin-1-yl)(5-phenyloxazol-4-yl)methanone] | 1 to 50
O=C(c1nccn1-c1ccccc1C(F)(F)F)N1CCNC[C@H]1Cc1ccccc1 [Example 8, ((R)-2-benzylpiperazin-1-yl)(1-(2-(trifluoromethyl)phenyl)-1H-imidazol-2-yl)methanone] | 50 to 100
Cc1cc(C)c(C#N)c(Oc2ccccc2-c2ccsc2C(=O)N2CCNC[C@H]2Cc2ccccc2)n1 [Example 9, 2-(2-(2-((R)-2-benzylpiperazine-1-carbonyl)thiophen-3-yl)phenoxy)-4,6-dimethylnicotinonitrile] | 1 to 50
N#Cc1ccccc1Oc1ccccc1-c1ccsc1C(=O)N1CCNC[C@H]1Cc1ccccc1 [Example 10, 2-(2-(2-((R)-2-benzylpiperazine-1-carbonyl)thiophen-3-yl)phenoxy)benzonitrile] | 1 to 50
N#Cc1cccnc1Oc1ccccc1-c1ccsc1C(=O)N1CCNC[C@H]1Cc1ccccc1 [Example 11, 2-(2-(2-((R)-2-benzylpiperazine-1-carbonyl)thiophen-3-yl)phenoxy)nicotinonitrile] | 1 to 50
O=C(c1ccsc1-c1ccccc1Oc1ccccc1)N1CCNC[C@H]1Cc1ccccc1 [Example 12, ((R)-2-benzylpiperazin-1-yl)(2-(2-phenoxyphenyl)thiophen-3-yl)methanone] | < 1
Cc1nn(C)c(C(=O)N2CCNC[C@H]2Cc2ccccc2)c1-c1ccccc1Oc1ccccc1 [Example 13, ((R)-2-benzylpiperazin-1-yl)(1,3-dimethyl-4-(2-phenoxyphenyl)-1H-pyrazol-5-yl)methanone] | 1 to 50
CCn1nc(C)c(-c2ccccc2Oc2ccccc2)c1C(=O)N1CCNC[C@H]1Cc1ccccc1 [Example 14, ((R)-2-benzylpiperazin-1-yl)(1-ethyl-3-methyl-4-(2-phenoxyphenyl)-1H-pyrazol-5-yl)methanone] | 1 to 50
O=C(c1ccc(F)cc1-c1ccccc1Oc1ccccc1)N1CCNC[C@H]1Cc1ccccc1 [Example 15, ((R)-2-benzylpiperazin-1-yl)(5-fluoro-2′-phenoxybiphenyl-2-yl)methanone] | 1 to 50
O=C(c1cc(F)ccc1-c1ccccc1Oc1ccccc1)N1CCNC[C@H]1Cc1ccccc1 [Example 16, ((R)-2-benzylpiperazin-1-yl)(4-fluoro-2′-phenoxybiphenyl-2-yl)methanone] | 1 to 50
Cn1cc(-c2ccccc2Oc2ccccc2)c(C(=O)N2CCNC[C@H]2Cc2ccccc2)n1 [Example 17, ((R)-2-benzylpiperazin-1-yl)(1-methyl-4-(2-phenoxyphenyl)-1H-pyrazol-3-yl)methanone] | < 1
O=C(c1sccc1-c1cnn(Cc2ccccc2)c1)N1CCNC[C@H]1Cc1ccccc1 [Example 18, (R)-(3-(1-benzyl-1H-pyrazol-4-yl)thiophen-2-yl)(2-benzylpiperazin-1-yl)methanone] | 1 to 50
O=C(c1ccsc1-c1ccccc1-c1ccccc1)N1CCNC[C@H]1Cc1ccccc1 [Example 19, ((R)-2-benzylpiperazin-1-yl)(2-(biphenyl-2-yl)-thiophen-3-yl)-methanone] | 1 to 50

Results, then the compound that gave them:

IC50 [µM] | SMILES
1 to 50 | N#Cc1ccccc1Sc1ccccc1C(=O)N1CCNC[C@H]1Cc1ccccc1 [Example 20, (R)-2-(2-(2-benzylpiperazine-1-carbonyl)phenylthio)benzonitrile]
1 to 50 | O=C(c1ccccc1Cc1ccccc1)N1CCNC[C@H]1Cc1ccccc1 [Example 21, (R)-(2-benzylphenyl)(2-benzylpiperazin-1-yl)methanone]
1 to 50 | O=C(c1ccccc1)c1ccccc1C(=O)N1CCNC[C@H]1Cc1ccccc1 [Example 22, (R)-(2-benzoylphenyl)(2-benzylpiperazin-1-yl)methanone]
1 to 50 | O=C(c1ccccc1OCc1ccccc1)N1CCNC[C@H]1Cc1ccccc1 [Example 23, (R)-(2-(benzyloxy)phenyl)(2-benzylpiperazin-1-yl)methanone]
1 to 50 | O=C1CC(C(=O)N2CCNC[C@H]2Cc2ccccc2)CN1C(c1ccccc1)c1ccccc1 (stereo partly drawn) [Example 24, 1-benzhydryl-4-((R)-2-benzylpiperazine-1-carbonyl)pyrrolidin-2-one]
50 to 100 | COc1ccc(C(=O)c2ccccc2C(=O)N2CCNC[C@H]2Cc2ccccc2)cc1 [Example 25, (R)-(2-benzylpiperazin-1-yl)(2-(4-methoxybenzoyl)phenyl)methanone]
> 100 | O=C(c1cncn1-c1cccc2ccccc12)N1CCNC[C@H]1Cc1ccccc1 [Example 26, ((R)-2-benzylpiperazin-1-yl)(1-(naphthalen-1-yl)-1H-imidazol-5-yl)methanone]
1 to 50 | O=C(c1cncn1-c1ccccc1-c1ccccc1)N1CCNC[C@H]1Cc1ccccc1 [Example 27, ((R)-2-benzylpiperazin-1-yl)(1-(biphenyl-2-yl)-1H-imidazol-5-yl)methanone]
> 100 | Cc1n[nH]c(C)c1-c1ccccc1C(=O)N1CCNC[C@H]1Cc1ccccc1 [Example 28, ((R)-2-benzylpiperazin-1-yl)(2-(3,5-dimethyl-1H-pyrazol-4-yl)phenyl)methanone]
50 to 100 | Cc1noc(-c2ccccc2)c1C(=O)N1CCNC[C@H]1Cc1ccccc1 [Example 29, (R)-(2-benzylpiperazin-1-yl)(3-methyl-5-phenylisoxazol-4-yl)methanone]
1 to 50 | O=C(c1nc(-c2cccnc2)sc1-c1ccccc1)N1CCNC[C@H]1Cc1ccccc1 [Example 30, (R)-(2-benzylpiperazin-1-yl)(5-phenyl-2-(pyridin-3-yl)thiazol-4-yl)methanone]
1 to 50 | O=C(c1ccccc1-c1ccc(F)cc1)N1CCNC[C@H]1Cc1ccccc1 [Example 31, (R)-(2-benzylpiperazin-1-yl)(4′-fluorobiphenyl-2-yl)methanone]
1 to 50 | O=C(c1ccccc1-c1nc2ccccc2s1)N1CCNC[C@H]1Cc1ccccc1 [Example 32, (R)-(2-(benzo[d]thiazol-2-yl)phenyl)(2-benzylpiperazin-1-yl)methanone]
1 to 50 | O=C(c1c(-c2ccccc2Cl)noc1C1CC1)N1CCNC[C@H]1Cc1ccccc1 [Example 33, ((R)-2-benzylpiperazin-1-yl)(3-(2-chlorophenyl)-5-cyclopropylisoxazol-4-yl)methanone]
